Measurements published in paper PMC2891776 (Journal of medicinal chemistry, 2010).

Experiments:
[1] = target: T1, hASBT (Homo sapiens, UniProt Q12908); assay: Inhibition of taurocholate uptake in hASBT-MDCK monolayers; format: cell-based; conditions: for fold more potent than 33: ratio of Ki relative to 33
T1 sequence (Q12908 1-348): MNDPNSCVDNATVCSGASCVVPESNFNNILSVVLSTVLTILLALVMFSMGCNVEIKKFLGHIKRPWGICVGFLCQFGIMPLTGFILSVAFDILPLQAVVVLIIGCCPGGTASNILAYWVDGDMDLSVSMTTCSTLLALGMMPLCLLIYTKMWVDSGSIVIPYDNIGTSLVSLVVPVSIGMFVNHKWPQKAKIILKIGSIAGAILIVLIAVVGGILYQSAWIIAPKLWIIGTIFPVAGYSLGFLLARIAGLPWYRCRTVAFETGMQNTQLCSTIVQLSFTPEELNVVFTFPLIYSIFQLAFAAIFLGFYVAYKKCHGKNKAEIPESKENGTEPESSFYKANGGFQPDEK

[2] = target: T1, hASBT; conditions: previously reported; cited from earlier work

Compound: CC(CCC(=O)NC(CCC(=O)Nc1cccc(C(=O)O)c1)C(=O)OOCc1ccccc1)C1CCC2C3C(O)CC4CC(O)CCC4(C)C3CCC12C (centres unmarked) [Compound 30]
- hASBT inhibition potency ([1]; inhibition of taurocholate uptake): potent inhibitor

Compound: C[C@H](CCC(=O)N[C@@H](CCC(=O)Nc1ccccc1C(=O)O)C(=O)O)[C@H]1CC[C@H]2[C@@H]3[C@H](O)C[C@H]4C[C@H](O)CC[C@]4(C)[C@H]3CC[C@]12C [Compound 31]
- fold more potent than 33 [1]: over 2 fold

Compound: C[C@H](CCC(=O)N[C@@H](CCC(=O)Nc1cccc(C(=O)O)c1)C(=O)O)[C@H]1CC[C@H]2[C@@H]3[C@H](O)C[C@H]4C[C@H](O)CC[C@]4(C)[C@H]3CC[C@]12C [Compound 32]
- Affinity (switch on or off) ([1]; observed affinity of dianions, molecular switch state): High (on)
- fold more potent than 33 [1]: over 2 fold

Compound: C[C@H](CCC(=O)N[C@@H](CCC(=O)O)C(=O)O)[C@H]1CC[C@H]2[C@@H]3[C@H](O)C[C@@H]4C[C@H](O)CC[C@]4(C)[C@H]3CC[C@]12C [glu-CDCA, Glutamic acid CDCA amide]
- hASBT activity [2]: poor activity
